# Source: US11718609B2, “Heparanase inhibitors and use thereof” (Beta Therapeutics Pty Ltd, priority 2016, dated 2023)
# Assays:
# [1] = biological target: Recombinant human active heparanase (Homo sapiens (Human), UniProt Q9Y251); assay: Heparanase inhibition assay (colorimetric, fondaparinux substrate, WST-1 detection); type: biochemical; details: for IC50: average ± SEM, direct comparison to OGT_2115, read-out: Average IC50 (μM ± SEM), heparanase enzyme inhibition
# Procedure: Recombinant human active heparanase derived from Chinese hamster ovary cells was from R&D Systems. […] Following initiation of the reaction by addition of fondaparinux, the plate was sealed with adhesive film and incubated at 37° C. for 20-24 h. […] For the enzymatic assays, test compounds were dissolved and added to the assay at varying concentrations to calculate the level of inhibition.
# Heparanase inhibition activity of various compounds of the invention was determined using standard methods.
# C57BL6J mice = assay: Photo-oxidative damage of the retina, retinal function by electroretinography (ERG); details: intravitreal injection 1 μL of 200 μM, 5 days photo-oxidative damage
# Text: Significant trends in data points were ascertained using the one-way or two-way analysis of variance (ANOVA) to determine statistical significance (p<0.05) that is indicated by asterisks (*).
# C57BL6J mice were born and raised in 12:12 hrs light:dark cycle of 5 lux in individually vented cages, with free access to food and water. Age-matched adult mice (8-10 weeks) were randomly assigned to light damage and dim-reared control (non-light damage) groups. Animals of the light damage group were continuously exposed to 100 k lux white LED light for 1, 3, 5 and 7 days. […] Dim-reared control animals were also pupil dilated twice each day, but were returned to dim cyclic light (12:12 hrs light:dark, 5 lux light).
# During bright-light exposure, animals were housed in plastic boxes (two per box), with free access to food and water. The floors of the cages were coated with a reflective Perspex surface and illuminated by a 100-W 65000 k natural white LED (high CRI LED, Yuji, Beijing) mounted 18 cm above the plastic boxes. The LED light has an emission spectrum which more closely resembles daylight than halogen or incandescent bulbs. […] Animals were provided with bedding, food and water during the time course of light exposure, and their behaviour was monitored daily. […]
# [2] = cited from earlier work
# db/db mice [3] = assay: Insulin content of pancreatic islets in db/db mice (anti-insulin staining, morphometric analysis); type: in vivo, mouse; details: 50 mg/kg daily IP
# Procedure: FIG. 5. Insulin content in pancreas sections in db/db mice a model of Type 2 diabetes. Mice were treated daily with 50 mg/kg PI-88 IP from 4 weeks of age. Onset of clinical diabetes was determined by measuring urine glucose twice weekly with Multistix reagent strips and confirmed by measuring non-fasting blood glucose levels in tail vein blood using a MediSense glucometer with hyperglycemia defined as 2 consecutive blood glucose readings of 16 mmol/l or greater. Insulin was detected by anti-insulin antibody staining.
# The db/db mouse has defective leptin signalling resulting from a point mutation in the leptin receptor gene. Plasma insulin levels become elevated very early in life (10-14 days of age), and the affected animals are obese by the time they are 3-4 weeks old. The animals are insulin resistant, hypertriglyceridemic, and have impaired glucose tolerance.
# db/db mice were treated with saline or 50 mg/kg of PI-88 by daily intraperitoneal injection. At the cessation of treatment pancreatic islets were isolated and stained for insulin and the level of insulin expression assessed by quantitative morphometric analyses.
# db/db mice [4] = assay: Intra-islet heparan sulfate content in db/db mice (Alcian blue staining, morphometric analysis); type: in vivo, mouse; details: 50 mg/kg daily IP
# Procedure: FIG. 6. Intra-islet HS content in pancreas sections in treated db/db mice. Mice were treated daily with 50 mg/kg PI-88 IP from 4 weeks of age. Onset of clinical diabetes was determined by measuring urine glucose twice weekly with Multistix reagent strips and confirmed by measuring non-fasting blood glucose levels in tail vein blood using a MediSense glucometer with hyperglycemia defined as 2 consecutive blood glucose readings of 16 mmol/l or greater. Islet HS was detected by Alcian blue staining.
# db/db mice were treated with saline or 50 mg/kg of PI-88 daily by intraperitoneal injection. At the cessation of treatment pancreatic islets were isolated and stained with alcian blue to visualise heparan sulfate and the heparan sulfate content of the islets was assessed by quantitative morphometric analyses.
# Recombinant human active heparanase, sequence (Q9Y251 158-543): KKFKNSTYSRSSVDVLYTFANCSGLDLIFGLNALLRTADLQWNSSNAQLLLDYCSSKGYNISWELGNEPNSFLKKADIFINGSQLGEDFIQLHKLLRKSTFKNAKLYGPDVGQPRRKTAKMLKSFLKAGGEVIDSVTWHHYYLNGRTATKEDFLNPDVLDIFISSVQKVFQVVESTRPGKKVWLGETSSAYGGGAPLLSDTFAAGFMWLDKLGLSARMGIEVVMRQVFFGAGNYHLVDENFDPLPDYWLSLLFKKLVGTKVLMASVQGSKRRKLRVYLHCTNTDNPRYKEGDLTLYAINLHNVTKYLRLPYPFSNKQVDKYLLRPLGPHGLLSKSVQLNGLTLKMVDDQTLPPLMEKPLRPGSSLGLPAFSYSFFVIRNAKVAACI
# Recombinant human active heparanase, sequence (Q9Y251 36-109): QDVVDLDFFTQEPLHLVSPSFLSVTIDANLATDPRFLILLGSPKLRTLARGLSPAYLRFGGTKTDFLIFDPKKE
compound,measurement,setting,value
COc1cc2nc(-c3cccc4cccnc34)nc(NCCc3ccccc3)c2cc1OC [BT2164],IC50,[1],3.13 ± 0.72 µM
COc1cc2nc(NCCNC(=O)c3nnc(-c4cc5ccccc5[nH]4)o3)nc(N)c2cc1OC [BT2169],IC50,[1],4 ± 0.09 µM
COc1cc2nc(NCCNC(=O)c3nnc(-c4ccccc4)o3)nc(N)c2cc1OC.Cl [BT2172],ERG a-wave and b-wave responses versus control (PBS),C57BL6J mice,higher a- and b-wave responses than the control (PBS) group
same,retinal function (ERG),C57BL6J mice,maintained retinal function
COc1cc2nc(-c3cccc4cccnc34)nc(NCCNC(=O)c3nnc(-c4ccccc4)o3)c2cc1OC [BT2187],IC50,[1],3.64 ± 0.62 µM
"COc1cc2nc(N3CCN(C(=O)C4COc5ccccc5O4)CC3)nc(N)c2cc1OC (stereo not drawn) [doxazosin, reference compound]",heparanase inhibition (in words),[1],inhibits heparanase
PI-88,half-life,[2],approximately 30 minutes
same,expression of insulin in islets,db/db mice [3],increased compared to the saline treated db/db mice and is near to the level of insulin expression in the wild-type mice
same,islet heparan sulfate levels,db/db mice [4],increased compared to the saline treated db/db mice and are near to the levels of heparan sulfate in the islets of wild-type mice
